Results: paper PMC4330097, “Competitive Binding of a Benzimidazole to the Histone-Binding Pocket of the Pygo PHD Finger” (ACS Chemical Biology, 2014)
No end group written: not given here. Me2 = dimethyl on the lysine side chain (dimethyllysine)

Key:
[1] = molecular target: T1, Pygo2 PHD finger (PHD–HD1 complex) (Homo sapiens, UniProt Q9BRQ0); assay: HSQC NMR titration, intermolecular NOEs, NMR competition with H3 peptide; type: binding; design: with B9L HD1 (BCL9L)
T1 sequence (Q9BRQ0 327-387): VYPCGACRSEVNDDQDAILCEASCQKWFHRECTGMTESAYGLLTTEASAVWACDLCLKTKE
T1 sequence (Q86UU0 235-263 partner): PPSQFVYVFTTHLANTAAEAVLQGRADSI
Text: HSQC NMR titration, intermolecular NOEs, NMR competition with H3 peptide on Pygo2 PHD finger (PHD–HD1 complex) | estimated affinities of CF16 and CF18 for the K4me pocket appear to be lower

[2] = molecular target: T1, Pygo2 PHD finger (PHD–HD1 complex); assay: HSQC NMR titration, intermolecular NOEs; type: binding; design: with B9L HD1 (BCL9L)
[3] = molecular target: T1, Pygo2 PHD finger (PHD–HD1 complex); assay: HSQC NMR chemical shift perturbation; type: binding; design: PHD–HD1 complex; with B9L HD1 (BCL9L)
[4] = molecular target: T1, Pygo2 PHD finger (PHD–HD1 complex); assay: biochemical; design: PHD–HD1 complex; with B9L HD1 (BCL9L); 15N-HSQC NMR titration of 15N-labelled PHD-HD1; Kd from chemical shift perturbations
Text: […]. […] Nevertheless, we asked whether CF16 could compete with a native histone H3 tail peptide for binding to the PHD–HD1 complex.

[5] = molecular target: T2, histone H3 tail pentapeptide ARTKme2Q (Homo sapiens); assay: NMR HSQC titration
T2 chain: ARTK(Me2)Q

## CCn1c(N)nc2ccccc21 [CF16]
[1]
  Kd: ~7.3 mM

## CN(C)CCn1c(N)nc2ccccc21 [CF18]
[2]
  Kd: ~14.7 mM

## CCn1c(NCCN2CCOCC2)nc2ccccc21 [CF17]
[3]
  HSQC NMR chemical shift perturbation: CF14, CF16, and CF17 produced altogether distinct CSP patterns

## Nc1nc2cc3c(cc2s1)OCCO3 [CF7]
[4]
  Kd: 2.9 mM

B1: Pygo2 PHD–B9L HD1 complex 327-387+235-263 (protein)
chain 1: AASAPPPPDKLEGGGGPAPPPAPPSTGRKQGKAGLQMKSPEKKRRKSNTQGPAYSHLTEFAPPPTPMVDHLVASNPFEDDFGAPKVGVAAPPFLGSPVPFGGFRVQGGMAGQVPPGYSTGGGGGPQPLRRQPPPFPPNPMGPAFNMPPQGPGYPPPGNMNFPSQPFNQPLGQNFSPPSGQMMPGPVGGFGPMISPTMGQPPRAELGPPSLSQRFAQPGAPFGPSPLQRPGQGLPSLPPNTSPFPGPDPGFPGPGGEDGGKPLNPPASTAFPQEPHSGSPAAAVNGNQPSFPPNSSGRGGGTPDANSLAPPGKAGGGSGPQPPPGLVYPCGACRSEVNDDQDAILCEASCQKWFHRECTGMTESAYGLLTTEASAVWACDLCLKTKEIQSVYIREGMGQLVAANDG
chain 2: MRILANKTRLPHPRRREAPGSPPLSPRGHCPPAPAKPMHPENKLTNHGKTGNGGAQSQHQNVNQGPTCNVGSKGVGAGNHGAKANQISPSNSSLKNPQAGVPPFSSLKGKVKRDRSVSVDSGEQREAGTPSLDSEAKEVAPRSKRRCVLERKQPYSGDEWCSGPDSEEDDKPIGATHNCNVADPAMAAPQLGPGQTTQLPLSESSVPGAPHGPPPGLRPDAPGGGGGGGGVPGKPPSQFVYVFTTHLANTAAEAVLQGRADSILAYHQQNVPRAKLDQAPKVPPTPEPLPLSTPSAGTPQSQPPPLPPPPPPAPGSAPPALPPEGPPEDSSQDLAPNSVGAASTGGGTGGTHPNTPTATTANNPLPPGGDPSSAPGPALLGEAAAPGNGQRSLVGSEGLSKEQLEHRERSLQTLRDIERLLLRSGETEPFLKGPPGGAGEGGPPAQAPPPPQQPPTAPPSGLKKYEEPLQSMISQTQSLGGPPLEHEVPGHPPGGDMGQQMNMMIQRLGQDSLTPEQVAWRKLQEEYYEEKRRKEEQIGLHGSRPLQDMMGMGGMMVRGPPPPYHSKPGDQWPPGMGAQLRGPMDVQDPMQLRGGPPFPGPRFPGNQIQRVPGFGGMQSMPMEVPMNAMQRPVRPGMGWTEDLPPMGGPSNFAQNTMPYPGGQGEAERFMTPRVREELLRHQLLEKRSMGMQRPLGMAGSGMGQSMEMERMMQAHRQMDPAMFPGQMAGGEGLAGTPMGMEFGGGRGLLSPPMGQSGLREVDPPMGPGNLNMNMNVNMNMNMNLNVQMTPQQQMLMSQKMRGPGDLMGPQGLSPEEMARVRAQNSSGVMGGPQKMLMPSQFPNQGQQGFSGGQGPYQAMSQDMGNTQDMFSPDQSSMPMSNVGTTRLSHMPLPPASNPPGTVHSAPNRGLGRRPSDLTISINQMGSPGMGHLKSPTLSQVHSPLVTSPSANLKSPQTPSQMVPLPSANPPGPLKSPQVLGSSLSVRSPTGSPSRLKSPSMAVPSPGWVASPKTAMPSPGVSQNKQPPLNMNSSTTLSNMEQGTLPPSGPRSSSSAPPANPPSGLMNPSLPFTSSPDPTPSQNPLSLMMTQMSKYAMPSSTPLYHNAIKTIATSDDELLPDRPLLPPPPPPQGSGPGISNSQPSQMHLNSAAAQSPMGMNLPGQQPLSHEPPPAMLPSPTPLGSNIPLHPNAQGTGGPPQNSMMMAPGGPDSLNAPCGPVPSSSQMMPFPPRLQQPHGAMAPTGGGGGGPGLQQHYPSGMALPPEDLPNQPPGPMPPQQHLMGKAMAGRMGDAYPPGVLPGVASVLNDPELSEVIRPTPTGIPEFDLSRIIPSEKPSSTLQYFPKSENQPPKAQPPNLHLMNLQNMMAEQTPSRPPNLPGQQGVQRGLNMSMCHPGQMSLLGRTGVPPQQGMVPHGLHQGVMSPPQGLMTQQNFMLMKQRGVGGEVYSQPPHMLSPQGSLMGPPPQQNLMVSHPLRQRSVSLDSQMGYLPAPGGMANLPF
[5]
  Kd: 0.528 mM
